Reference: US12157742B2, “Kinase inhibitors exhibiting anti-cancer activity and their method of use” (ALLCRON PHARMA INC., priority 2018, dated 2024)
Structures can show the parent of a compound that is named as a salt.

Tests used:
Set-up in all cases: cell survival: unit of the concentration uncertain
[1] = tested on: K562 expressing BCR-ABL T315I; test: Cytotoxicity assay, K562-T315I cells; type: cell-based, human
Method: (§1) Cytotoxicity assay: CML patient derived cell lines K562 expressing BCR-ABL T315I, Ph+ALL cell line BV173-T315I, and mouse cell line Ba/F3 T315I were used for cytotoxicity testing. All these cell lines express T315I mutant of BCR-ABL. BV-173-T315I is also a model for blast crisis, the terminal stage in CML. Cell lines were cultured in Iscove's Modified Dulbecco's Medium (IMDM) containing L-glutamine and 25 mM Hepes. The cells were maintained at 37° C. in a humidified CO2 incubator. For cytotoxicity measurement 5000-8000 cells were plated into 96 well plates in quadruplicates. Drugs were dissolved in DMSO and cells were treated in increasing doses ranging from 1 to 10^7 fold. Control cells were treated with respective amounts of DMSO. Cells were incubated for 72 hours and, at the end of the incubation point cell, viability was determined. For this purpose, 25 μl of the cell culture from the 96 well plates were transferred to Ultracruz® black bottom 96 well plates (Santa Cruz Biotechnology) and 25 μl of a live cell detecting fluorescent reagent (Cellular Technology Limited (“CTL”)) was added to the cells. The cells and the CTL reagent was mixed thoroughly and centrifuged for 5 min, at the standard g levels normally used to accelerate settling of the cells to the bottom of the culture medium container without damaging the living cells, and the fluorescence was detected at 405 nm excitation using a CTL scanner. Viable cells will fluoresce green and the machine automatically scans and counts the number of viable cells from each well. The percentage of viable cells in drug treated samples relative to the number of viable cells in DMSO treated samples was then calculated. The data obtained were analyzed using Prism nonlinear regression software (Graphpad Software) for the curve fitting and determination of IC50 values.

[2] = tested on: mouse cell line Ba/F3 T315I; test: Cytotoxicity assay, Ba/F3-T315I cells; type: cell-based; details: for cancer cell survival rate compared to the DMSO control: 72 hours
Method: as §1

[3] = tested on: Ph+ALL cell line BV173-T315I; test: Cytotoxicity assay, BV173-T315I cells; type: cell-based
Method: as §1

[4] = about 10^−6 M to about 10^−5 M, 72 hours

N#Cc1cc2cc3c(cc2nc1SCC(=O)Nc1ccccc1C(N)=O)OCCO3 [AP-R230, 2-[2-(8-cyano-2H,3H-[1,4]dioxino[2,3-g]quinolin-7-ylsulfanyl)acetamido]benzamide]
cancer cell survival rate compared to the DMSO control ([1]; about 5 μM to about 10 μM, 72 hours): less than 4% | cancer cell survival rate compared to the DMSO control ([2]; about 5 μM to about 10 μM): less than 4%

Cc1cc(C(=O)Nc2ccc(CN3CCN(C)CC3)cc2)ccc1NC(=O)CSc1nc2cc3c(cc2cc1C#N)OCCO3 [AP-R234, 4-[2-(8-cyano-2H,3H-[1,4]dioxino[2,3-g]quinolin-7-ylsulfanyl)acetamido]-3-methyl-N-4-[(4-methylpiperazin-1-yl)methyl]phenylbenzamide hydrochloride]
cancer cell survival rate compared to the DMSO control ([1]; dosage printed as 'about M', 72 hours): less than 4% | cancer cell survival rate compared to the DMSO control ([2]; dosage printed as 'about M'): less than 4%

Cc1ccc(CN2CCCC2)cc1NC(=O)CSc1nc2cc3c(cc2cc1C#N)OCCO3 [AP-R235, 2-[(8-cyano-2,3-dihydro-[1,4]dioxino[2,3-g]quinolin-7-yl)sulfanyl]-N-[2-methyl-5-(pyrrolidin-1-ylmethyl)phenyl]acetamide hydrochloride]
cancer cell survival rate compared to the DMSO control ([1]; about 10 μM, 72 hours): less than 10% | cancer cell survival rate compared to the DMSO control ([2]; about 10 μM): less than 2%

Cc1cccc(Cl)c1NC(=O)CSc1nc2cc3c(cc2cc1C#N)OCCO3 [AP-R342, N-(2-chloro-6-methylphenyl)-2-({8-cyano-2H,3H-[1,4]dioxino[2,3-g]quinolin-7-yl}sulfanyl)acetamide]
cancer cell survival rate compared to the DMSO control [1, 4]: less than 7% | cancer cell survival rate compared to the DMSO control [3, 4]: less than 7% | cancer cell survival rate compared to the DMSO control ([2]; about 10^−6 M to about 10^−5 M): less than 7%

Cc1cc(F)ccc1NC(=O)CSc1nc2cc3c(cc2cc1C#N)OCCO3 [AP-R343, 2-({8-cyano-2H,3H-[1,4]dioxino[2,3-g]quinolin-7-yl}sulfanyl)-N-(4-fluoro-2-methylphenyl)acetamide]
cancer cell survival rate compared to the DMSO control [1, 4]: less than 5% | cancer cell survival rate compared to the DMSO control [3, 4]: less than 5% | cancer cell survival rate compared to the DMSO control ([2]; about 10^−6 M to about 10^−5 M): less than 5%

Cc1cc(CN2CCCC2)ccc1NC(=O)CSc1nc2cc3c(cc2cc1C#N)OCCO3 [AP-R352, 2-((8-cyano-2,3-dihydro-[1,4]dioxino[2,3-g]quinolin-7-yl)thio)-N-(2-methyl-4-(pyrrolidin-1-ylmethyl)phenyl)acetamide dihydrochloride]
IC50 ([1]; Homo sapiens, 72 hours, read-out: IC50 for cell killing): 1090 nM | IC50 ([3]; 72 hours, read-out: IC50 for cell killing): 540 nM | IC50 ([2]; Mus musculus, BaF3, 72 hours, read-out: IC50 for cell killing): 800 nM

Cc1cc(NC(=O)CSc2nc3cc4c(cc3cc2C#N)OCCO4)n(C)n1 [AP-R357, 2-((8-cyano-2,3-dihydro-[1,4]dioxino[2,3-g]quinolin-7-yl)thio)-N-(1,3-dimethyl-1H-pyrazol-5-yl)acetamide]
cancer cell survival rate compared to the DMSO control ([1]; about 30 μM, 72 hours): less than 20% | cancer cell survival rate compared to the DMSO control ([3]; about 30 μM, 72 hours): less than 6% | cancer cell survival rate compared to the DMSO control ([2]; about 30 μM): less than 7%

Cc1nn(C)cc1NC(=O)CSc1nc2cc3c(cc2cc1C#N)OCCO3 [AP-R358, 2-((8-cyano-2,3-dihydro-[1,4]dioxino[2,3-g]quinolin-7-yl)thio)-N-(1,3-dimethyl-1H-pyrazol-4-yl)acetamide]
cell survival ([1]; at 0.625 (unit uncertain)): above 90% | cell survival ([1]; at 10 (unit uncertain)): about 20% | cell survival ([3]; at 0.625 (unit uncertain)): above 90% | cell survival ([3]; at 10 (unit uncertain)): about 20% | cell survival ([2]; at 0.625 (unit uncertain)): above 90% | cell survival ([2]; at 10 (unit uncertain)): about 20%
